Results from patent publication US20200405867A1, “ORAL DOSAGE FORMS” (Sunovion Pharmaceuticals Inc., priority 2018, published 2020).
Counter-ions that a name gives are not always drawn. Like-named read-outs stand apart in the source and are kept apart here.

Experiments:
[1] = capsule, doses of 1 to 8 mg, adult or adolescent; cited from earlier work
physchem = type: physicochemical
Excerpt: To make a solution, one must attain sufficient solubility to achieve efficacious levels of an active pharmaceutical ingredient (API) while avoiding precipitation.

[2] = type: physicochemical; details: for impurities: four weeks
Excerpt: A solution must be stable for commercially reasonable periods. […] In experimenting with buffering agents such as tartrate and citrate, precipitation of dasotraline HCl was discovered.

[3] = type: physicochemical
Excerpt: In addition to chemical/physical stability, the formulation must remain free of microbial growth for commercially reasonable periods. Several common preservatives failed when combined with dasotraline HCl and malate buffer.

| SMILES | abuse liability [1] | efficacy in treating ADHD [1] | pH window of maximal solubility in water (physchem) | solubility (physchem; pH 2.2, aqueous buffer) | solubility (physchem; pH 2.7, aqueous buffer) | solubility (physchem; pH 3, aqueous buffer) | solubility (physchem; pH 3.4, aqueous buffer) | solubility (physchem; pH 3.9, aqueous buffer) | solubility (physchem; pH 4.4, aqueous buffer) | solubility (physchem; pH 4.9, aqueous buffer) | impurities ([2]; 10 mM malate buffer, pH≤3.5, 60° C.) | impurities ([2]; higher (25 mM) malate buffer amount, pH>3, 60° C.) | physical stability of solution ([2]; pH 3) | physical stability of solution ([2]; pH 3.5) | physical stability of solution ([2]; pH 5) | physical stability of solution [3] | stability of solution [3] | stability of solution ([3]; 4 weeks) | impurities ([3]; malate buffer, 5% propylene glycol, further stress beyond four weeks at 60° C.) |
| --- | --- | --- | --- | --- | --- | --- | --- | --- | --- | --- | --- | --- | --- | --- | --- | --- | --- | --- | --- |
| N[C@@H]1CC[C@@H](c2ccc(Cl)c(Cl)c2)c2ccccc21 [dasotraline, (1R,4S)-4-(3,4-dichlorophenyl)-1,2,3,4-tetrahydronaphthalen-1-amine] | no detectable abuse liability | effective in treating ADHD | – | – | – | – | – | – | – | – | – | – | – | – | – | – | – | – | – |
| N[C@@H]1CC[C@@H](c2ccc(Cl)c(Cl)c2)c2ccccc21 [dasotraline HCl] | – | – | 2.0-3.0 pH | 1900 µg/mL | 2200 µg/mL | 2100 µg/mL | 1300 µg/mL | 800 µg/mL | 600 µg/mL | 400 µg/mL | no detectable impurities | > 0.1% | precipitation | precipitation | precipitation | induced precipitation | stable solution under all conditions tested | effective up to four weeks at 60 °C | > 0.1% |
